These results are taken from PubChem BioAssay (NCI).

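Values below derive from 48-hour exposures of cells grown in 96-well plates, with endpoints linearly interpolated between the two concentrations bracketing the appropriate inhibition level. GI50 = concentration required for 50% inhibition of growth. At the TGI there is no net growth.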

The first assay deals with SW-620 colon. Kind of assay: NCI-60 cell line screen, 48 h.
In the case of `Cc1c(C2=C(Br)C(=O)N(C)C2=O)c(=O)n(C)c(=O)n1C`, the TGI is over 100 µM.
For `NC(CS/C(Cl)=C/Cl)C(=O)O` (centres undefined), the GI50 is 39.8 µM and the TGI was over 100 µM.
Regarding `CCn1c(CO)nn(-c2cc(O[C@@H](C)C(F)(F)F)c(C(=O)Nc3c(F)cccc3Cl)cc2F)c1=O`, the GI50 is under 0.01 µM and the TGI was over 100 µM.
Consider `CC1CCC(=O)C(C(=O)CC2CC(=O)NC(=O)C2)C1` (centres undefined), for which the TGI was over 100 µM.
As for `O=C(Nc1ccc(CO)cc1)c1coc2ccccc2c1=O`, the GI50 is over 100 µM and the TGI is over 100 µM.
Regarding `Cc1cc(N/N=C/c2nc(-c3ccc(Br)cc3)oc2C)c2cc(Br)ccc2n1`, the GI50 was 2.04 µM and the TGI came out at 4.81 µM.
On the same counts, the results for `COc1ccc2c(c1)C(C)Cc1c(ncnc1-n1c(C)nc3ccccc31)N2C` (centres undefined) are 6.24 µM and 28 µM.
Taken in the same sequence, the figures for `COc1ccc2c(O)cc3c(c2c1)[C@H](CCl)CN3C(=O)c1cc2cc(NC(=O)CCN3CCOCC3)ccc2[se]1` were under 0.001 µM and 1.05 µM.
Taken in the same sequence, the figures for `COc1cc(C2=C(c3cn(C)c4ccccc34)COC2=O)cc(OC)c1OC` were 0.0444 µM and over 100 µM.
In the case of `COc1ccc(Nc2c3ccccc3nc3occ(Cl)c23)cc1`, the GI50 is under 0.01 µM and the TGI is 18.4 µM.

Another assay has as its system U251 CNS. The assay is described as follows: NCI-60 cell line screen, 48 h.
Consider `Nc1nc(SN=Nc2ccc(S(N)(=O)=O)cc2)c2[nH]cnc2n1`, for which the GI50 is 2.66 µM and the TGI is over 100 µM.
Taken in the same sequence, the figures for `COCCOc1cnc2ccn([C@H](C)c3nnc4c(F)cc(-c5cnn(C)c5)cn34)c(=O)c2c1` were over 100 µM and over 100 µM.
Regarding `CCc1ccccc1NC(=O)c1sc2nc3c(cc2c1N)C(=O)CCC3`, the GI50 is 0.608 µM and the TGI was determined as 51.7 µM.
In the case of `C[C@]12CC[C@@H]3c4ccc(O)cc4CC[C@H]3[C@@H]1CC[C@@H]2NS(=O)(=O)c1cccc(F)c1`, the GI50 is 3.23 µM and the TGI was 12.1 µM.
In turn, `CCOC(=O)c1c[nH]c2oc(/C=N/N3CC(CN4CCOCC4)OC3=O)cc2c1=O` (centres undefined) yielded a TGI of over 100 µM.
Regarding `COc1ccc(-c2oc3cc(O)c(OC)c(O)c3c(=O)c2OC)cc1O`, the GI50 is 0.0708 µM and the TGI was over 100 µM.
`Cc1c(C2=C(Br)C(=O)N(C)C2=O)c(=O)n(C)c(=O)n1C` registered a TGI of over 100 µM.
With `NC(CS/C(Cl)=C/Cl)C(=O)O` (centres undefined), the GI50 is over 61 µM and the TGI is over 100 µM.
On the same counts, the results for `CCn1c(CO)nn(-c2cc(O[C@@H](C)C(F)(F)F)c(C(=O)Nc3c(F)cccc3Cl)cc2F)c1=O` are under 0.01 µM and over 100 µM.
As to `CC1CCC(=O)C(C(=O)CC2CC(=O)NC(=O)C2)C1` (centres undefined), the TGI was over 100 µM.
For the compound `O=C(Nc1ccc(CO)cc1)c1coc2ccccc2c1=O`, the GI50 was over 100 µM and the TGI was over 100 µM.
Regarding `Cc1cc(N/N=C/c2nc(-c3ccc(Br)cc3)oc2C)c2cc(Br)ccc2n1`, the GI50 was 1.94 µM and the TGI amounted to 3.75 µM.
Taken in the same sequence, the figures for `COc1ccc2c(c1)C(C)Cc1c(ncnc1-n1c(C)nc3ccccc31)N2C` (centres undefined) were 4.51 µM and 17.7 µM.
Taken in the same sequence, the figures for `COc1ccc2c(O)cc3c(c2c1)[C@H](CCl)CN3C(=O)c1cc2cc(NC(=O)CCN3CCOCC3)ccc2[se]1` were under 0.001 µM and 0.385 µM.
For the compound `COc1cc(C2=C(c3cn(C)c4ccccc34)COC2=O)cc(OC)c1OC`, the GI50 is 0.0731 µM and the TGI was over 100 µM.
In turn, `COc1ccc2c(c1)[C@@]13CCCC[C@H]1[C@@H](C2)N(C)CC3=O` came in with a TGI of 58.9 µM.

In another assay the test system is UACC-62 melanoma. Kind of assay: NCI-60 cell line screen, 48 h.
`Nc1nc(SN=Nc2ccc(S(N)(=O)=O)cc2)c2[nH]cnc2n1`: the GI50 was 0.379 µM and the TGI worked out at 5.62 µM.
In the case of `COCCOc1cnc2ccn([C@H](C)c3nnc4c(F)cc(-c5cnn(C)c5)cn34)c(=O)c2c1`, the GI50 is 56.4 µM and the TGI was over 100 µM.
`CCc1ccccc1NC(=O)c1sc2nc3c(cc2c1N)C(=O)CCC3`: the GI50 was 0.439 µM and the TGI was over 100 µM.
On to `C[C@]12CC[C@@H]3c4ccc(O)cc4CC[C@H]3[C@@H]1CC[C@@H]2NS(=O)(=O)c1cccc(F)c1`, for which the GI50 was 2.92 µM and the TGI came to 11.3 µM.
For the compound `CCOC(=O)c1c[nH]c2oc(/C=N/N3CC(CN4CCOCC4)OC3=O)cc2c1=O` (centres undefined), the TGI is over 100 µM.
Turning to `COc1ccc(-c2oc3cc(O)c(OC)c(O)c3c(=O)c2OC)cc1O`, the GI50 is 0.311 µM and the TGI is over 100 µM.
The compound `Cc1c(C2=C(Br)C(=O)N(C)C2=O)c(=O)n(C)c(=O)n1C` registered a TGI of 97.9 µM.
In the case of `NC(CS/C(Cl)=C/Cl)C(=O)O` (centres undefined), the GI50 is 57 µM and the TGI is over 100 µM.
On the same counts, the results for `CCn1c(CO)nn(-c2cc(O[C@@H](C)C(F)(F)F)c(C(=O)Nc3c(F)cccc3Cl)cc2F)c1=O` are under 0.0217 µM and over 100 µM.
Turning to `CC1CCC(=O)C(C(=O)CC2CC(=O)NC(=O)C2)C1` (centres undefined), the TGI was over 100 µM.
On to `O=C(Nc1ccc(CO)cc1)c1coc2ccccc2c1=O`, for which the GI50 was over 100 µM and the TGI is over 100 µM.
`Cc1cc(N/N=C/c2nc(-c3ccc(Br)cc3)oc2C)c2cc(Br)ccc2n1`: the GI50 was 1.91 µM and the TGI was determined as 4.58 µM.
As for `COc1ccc2c(c1)C(C)Cc1c(ncnc1-n1c(C)nc3ccccc31)N2C` (centres undefined), the GI50 was 4.83 µM and the TGI worked out at 22.3 µM.
On the same counts, the results for `COc1ccc2c(O)cc3c(c2c1)[C@H](CCl)CN3C(=O)c1cc2cc(NC(=O)CCN3CCOCC3)ccc2[se]1` are under 0.001 µM and under 0.001 µM.
The compound `COc1ccc2c(c1)[C@@]13CCCC[C@H]1[C@@H](C2)N(C)CC3=O` displayed a TGI of 32.7 µM.
In the case of `COc1ccc(Nc2c3ccccc3nc3occ(Cl)c23)cc1`, the GI50 was 0.0104 µM and the TGI worked out at 42.4 µM.
